These compounds were tested against Beta-secretase 1 (Homo sapiens, UniProt P56817) (assay: Inhibition of BACE1).
Chain of Beta-secretase 1 (P56817 whole entry): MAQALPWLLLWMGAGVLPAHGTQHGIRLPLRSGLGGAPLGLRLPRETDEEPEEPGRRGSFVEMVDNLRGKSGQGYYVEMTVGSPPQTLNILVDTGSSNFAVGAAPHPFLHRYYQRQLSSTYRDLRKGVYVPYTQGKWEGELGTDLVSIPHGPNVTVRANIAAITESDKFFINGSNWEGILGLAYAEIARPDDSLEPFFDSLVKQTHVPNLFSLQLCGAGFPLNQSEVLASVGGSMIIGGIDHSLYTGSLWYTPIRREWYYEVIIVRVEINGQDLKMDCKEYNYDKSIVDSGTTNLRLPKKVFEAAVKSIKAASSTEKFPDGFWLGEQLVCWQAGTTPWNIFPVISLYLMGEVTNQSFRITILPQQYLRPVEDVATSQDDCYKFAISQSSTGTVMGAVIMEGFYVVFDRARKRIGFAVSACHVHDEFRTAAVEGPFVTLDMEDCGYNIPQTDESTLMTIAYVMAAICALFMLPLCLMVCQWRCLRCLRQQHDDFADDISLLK

IC50 [µM]	Structure (SMILES)
> 600	CC(=O)Nc1cc(Nc2cc(-c3ccccc3)ncn2)ccc1C
> 600	CS(=O)(=O)Nc1cc(Nc2cc(-c3ccccc3)ncn2)ccc1-c1ccccc1
21	Cc1ccc(Nc2cc(-c3ccc4c(c3)OCCO4)ncn2)cc1NS(C)(=O)=O
69	COc1ccc(Nc2cc(-c3ccccc3)ncn2)cc1NS(C)(=O)=O
219	Cc1ccc(Nc2cc(-c3ccccc3C)ncn2)cc1NS(C)(=O)=O
16	CS(=O)(=O)Nc1cc(Nc2cc(-c3ccccc3)ncn2)ccc1Cl
570	C=CCc1ccc(Nc2cc(-c3ccccc3)ncn2)cc1NS(C)(=O)=O
> 1600	Cc1ccc(Nc2cc(-c3ccccc3)ncn2)cc1N(C)S(C)(=O)=O
30	CS(=O)(=O)Nc1cc(Nc2cc(-c3ccccc3)ncn2)ccc1Br
> 600	Nc1cc(Nc2cc(-c3ccccc3)ncn2)ccc1Br
317	Cc1ccc(Nc2cc(-c3ccccc3N(C)C)ncn2)cc1NS(C)(=O)=O
24	Cc1ccc(Nc2cc(-c3ccccc3)ncn2)cc1NS(C)(=O)=O
19	Cc1ccc(Nc2cc(-c3ccc(-c4ccccc4)cc3)ncn2)cc1NS(C)(=O)=O
110	CS(=O)(=O)Nc1cc(Nc2cc(-c3ccccc3)ncn2)ccc1F
400	CS(=O)(=O)Nc1cccc(Nc2cc(-c3ccccc3)ncn2)c1
37	Cc1ccc(Nc2cc(-c3ccc(CCCO)cc3)ncn2)cc1NS(C)(=O)=O
> 600	O=[N+]([O-])c1cc(Nc2cc(-c3ccccc3)ncn2)ccc1Br
15	Cc1ccc(Nc2cc(-c3ccc(N(C)C)cc3)ncn2)cc1NS(C)(=O)=O
